From patent US20230357134A1, “AGENTS FOR USE IN THE TREATMENT OF AMYLOIDOSIS” (UCL BUSINESS LTD, priority 2020, published 2023)

Key:
[1] = Rat IV pharmacokinetics; conditions: in vivo, 1 mg/kg, 1 mpk, read-out: Rat IV PK t½ (converted)
[2] = target: T1, isolated wild type TTR (Homo sapiens, UniProt P02766); test: Displacement of 125I-T4 from isolated wild type TTR in buffer; conditions: concentration of ligand reducing binding of 125I-T4 by TTR by 50%; 125 nM TTR, pH 8.0, overnight 4° C.; mean of at least 3 replicates; read-out: D50 buffer
T1 construct: the non-covalently associated protomers, of mass 13,761, each contain 127 residues; His6 (N); TEV cleavage site (N); made in house; host or cells: E. coli BL21 (DE3)
Method: 3. Evaluation of Ligand Activity Based on Capacity to Displace ^125I-Thyroxine (T4) from TTR in Buffer/Human Plasma 3.1 Displacement of ^125I-T4 from Isolated Wild Type TR.
Competition of ligands with T4 for binding by TTR was assayed quantitatively by a previously described procedure (Kolstoe et al., 2010). Briefly, a solution of 125 nM TTR in 0.1 M Tris-HCl, 0.1 M NaCl and 0.001 M EDTA buffer, pH 8.0, was incubated overnight at 4° C. in the presence of 1.07 nM ^125I T4 (1,200 μCi/μg, 200 μCi/ml, Perkin Elmer) and increasing concentrations of inhibitor (0-5 μM) in 40 μl final volume. ^125I T4 bound by TTR was separated from unbound T4 by gel filtration chromatography using Micro Bio Spin 6 columns (Bio-Rad) previously equilibrated with the reaction buffer containing 1% w/v BSA. After counting with a Wizard2 gamma counter (Perkin-Elmer) for 60 s, percentage binding was plotted against the logarithm of the inhibitor concentration, and D50 (concentration of ligand reducing the binding of T4 by TTR by 50%) was determined using a four parameters dose-response curve with GraphPad Prism 5 (Table 1).

[3] = Rat oral pharmacokinetics; conditions: in vivo, 5 mg/kg, 5 mpk
[4] = target: T2, TTR in whole human plasma (Homo sapiens, UniProt P02766); test: Displacement of 125I-T4 from TTR in normal human plasma; format: binding; conditions: wild type TTR, 30 min 37° C. with ligand, immunoprecipitation, mean of at least 3 replicates, read-out: D50 plasma
T2 construct: TTR in whole plasma, from individuals homozygous for wild type TTR; from tissue; host or cells: whole human plasma
Method: 3.2 Displacement of ^125-T4 from TTR in Normal Human Plasma.
The displacement of ^125I-T4 from TTR in whole plasma, from individuals homozygous for wild type TTR, was studied by incubating plasma with each ligand at increasing concentrations for 30 min at 37° C., further incubation with […] followed by measurement of the radioactivity in the immunoprecipitate obtained with anti-TTR antibodies. […] Percentage binding was plotted against the logarithm of the inhibitor concentration, and D50 (concentration of ligand reducing the binding of T4 by TTR by 50%) was determined using a four parameter dose-response curve with GraphPad Prism 5 (Table 1).

[5] = target: T3, recombinant Val122Ile TTR (Homo sapiens, UniProt P02766, V142I); test: Mechano-enzymatic fibrillogenesis, TTR aggregation by turbidity at 400 nm; format: biochemical; conditions: equimolar ligand, Val122Ile TTR 9 μM, trypsin, 96 h; 100 % = protein without ligand; mean (SD)
T3 construct: the non-covalently associated protomers, of mass 13,761, each contain 127 residues; His6 (N); TEV cleavage site (N); made in house; host or cells: E. coli BL21 (DE3)
Method: (§1) Briefly, fibrillogenesis of recombinant Val122Ile TTR at 0.5 mg/ml (9 μM) in PBS, pH 7.4 was carried out in glass vials stirred at 1,400 rpm (IKA magnetic stirrer) and 37° C. in the presence and in the absence of trypsin (5 ng/μl). […] Each ligand was tested at 4 different concentrations (4.5, 9, 18, 36 μM respectively) corresponding to the following drug/TTR molar ratios of 0.5:1, 1:1, 2:1 and 4:1. Several dilutions of the drug stock solutions were made in order to add the same volume of DMSO to each sample. Control samples without drug were added with the same volume of DMSO only. To allow complete binding of ligand by TTR each sample was incubated for 30 min at 37° C. before addition of trypsin. Spectrophotometric turbidity at 400 nm was used to monitor fibril formation over time until it reached a plateau at 96 h. Aggregation of TTR in the presence of equimolar ligand concentrations was quantified as spectrophotometric turbidity at 400 nm as a proportion of 100% for aggregation of the protein in the absence of ligands (Table 2).

[6] = target: T3, recombinant Val122Ile TTR; test: Mechano-enzymatic fibrillogenesis, TTR amyloid by ThT emission fluorescence; format: biochemical; conditions: equimolar ligand, 96 h pellets, normalized to 100 % without ligand, mean (SD)
Method: as §1
At the end of the 96 h aggregation, pellets were harvested from each protein sample by 20 min centrifugation at 11,600 g, thoroughly rinsed with PBS to remove non-bound ligand, resuspended with 100 μl PBS, pH 7.4 containing 10 μM ThT in Costar 96-well black-wall plates. Bottom fluorescence values (excitation 440 nm, emission 480 nm) were recorded using a BMG LABTECH FLUostar Omega plate reader. Each value was normalized to the ThT signal of the TTR sample without ligand (Table 2)

[7] = target: T4, native recombinant wild type TTR (Homo sapiens, UniProt P02766); test: Kinetics of ligand binding by TTR (stopped flow quenching of intrinsic fluorescence); conditions: for T 1/2: TTR 1 μM with equimolar ligand, 37° C., PBS pH 7.4, t½ = ln 2/k
T4 construct: the non-covalently associated protomers, of mass 13,761, each contain 127 residues; His6 (N); TEV cleavage site (N); made in house; host or cells: E. coli BL21 (DE3)
Method: Ligand binding by native TTR quenches the intrinsic fluorescence of the protein. After mixing of ligands with TTR in solution, monitoring emission of the intrinsic fluorescence over time defines the rate at which the ligand is bound by the protein. The fast phase of these binding kinetics was characterized using an SFM 3000 stopped flow device coupled to a MOS500 spectrometer with a fluorescence detection system (Bio Logic, Claix, France) and a cell path length of 1.5 mm. TTR and ligands at 37° C. were mixed at final concentrations of 1 μM each in PBS pH 7.4 containing 0.9% v/v DMSO, and were excited at 280 nm for measurement of total fluorescence emission over 325 nm using a cut off filter. Kinetic data were acquired as the average of at least 3 experimental mixings and fitted to a first order reaction using the general formula y(t)=at +b+C exp (−kt), where y(t) is the observed fluorescence, a (slope) and b (offset) corresponding to the baseline. C and k are, respectively, amplitude and rate constant of the observed fluorescence change. Data were analysed using the Biokine software and values of half-life time (t½) correspond to ln 2/k. (Table 3).

[8] = target: T5, (2H, 13C, 15N) TTR (Homo sapiens, UniProt P02766); test: 2D NMR [1H,15N] TROSY of TTR-ligand complexes; format: binding; conditions: equimolar ligand, 90 μM TTR, PBS pH 7.4, 310K
T5 construct: the non-covalently associated protomers, of mass 13,761, each contain 127 residues; His6 (N); TEV cleavage site (N); made in house; host or cells: E. coli BL21 (DE3)
Method: Using the same methodology as in Corazza 2019, we have studied the effect of equimolar addition of T304 or B23 to a sample of 90 μM (^2H, ^13C,^15N) TTR in PBS buffer, pH 7.4. 2D NMR [^1H,[…]] TROSY spectra were acquired with a Bruker AVANCE 800 MHz Spectrometer at 310K. After the addition of T304 or B23 to TTR some of the amide peaks of the apo form vanish and new peaks of the holo species appear indicating the binding of T304 or B23 by TTR. The changes occur for specific TTR residues where the protein senses the chemical effect of the ligands or where the ligands induce structural changes in the protein. […] Analysis of the chemical shift perturbations in the holo TTR structure confirms the involvement of the halogen binding pocket in the binding but also highlights an effect that is well beyond the ligand binding site, involving the outer helix and the outer beta strands.

[9] = background statement; cited from earlier work

half-life [1] | IC50 [2] | Cmax [3] | IC50 [4] | % Aggregation (Turbidity method) [5] | % Aggregation (Fluorescence method) [6] | T 1/2 [7] | binding mode by NMR chemical shift changes [8] | rate constant k of ligand-induced quenching reaction ([7]; TTR and ligand 1 μM each) | burst phase amplitude ([7]; millisecond time scale, fluorescence quenching) | SMILES | bioavailability for an oral drug [9] | half-life in vivo [9]
6.97 h | 0.07 µM | 0.217 µg/mL | 3.2 µM | 3.96 (1.04) % | 8.96 (7.24) % | – | – | – | – | O=C(O)CCc1cc(Cl)c(OCCCOCCOc2c(Cl)cc(Nc3ccnnc3C(=O)O)cc2Cl)c(Cl)c1 [Compound B25, 4-[4-[2-[3-[4-(2-carboxyethyl)-2,6-dichloro-phenoxy]propoxy]ethoxy]-3,5-dichloro-anilino]pyridazine-3-carboxylic acid] | – | –
5.5 h | 0.09 µM | 1.45 µg/mL | 1.4 µM | 3.93 (1.73) % | 4.62 (2.37) % | – | – | – | – | O=C(O)CCc1cc(Cl)c(OCCCOCCOc2c(Cl)cc(Nc3cnccc3C(=O)O)cc2Cl)c(Cl)c1 [Compound B26, 3-[4-[2-[3-[4-(2-carboxyethyl)-2,6-dichloro-phenoxy]propoxy]ethoxy]-3,5-dichloro-anilino]pyridine-4-carboxylic acid] | – | –
5.34 h | 0.1 µM | 0.316 µg/mL | 2.2 µM | 4.24 (1.96) % | 12.0 (1.06) % | 0.866 s | – | – | – | O=C(O)CCc1cc(Cl)c(OCCCOCCOc2c(Cl)cc(Nc3ccncc3C(=O)O)cc2Cl)c(Cl)c1 [Compound B27, 4-[4-[2-[3-[4-(2-carboxyethyl)-2,6-dichloro-phenoxy]propoxy]ethoxy]-3,5-dichloro-anilino]pyridine-3-carboxylic acid] | – | –

The next lines start with the compound.

SMILES | half-life [1] | IC50 [2] | Cmax [3] | IC50 [4] | % Aggregation (Turbidity method) [5] | % Aggregation (Fluorescence method) [6] | T 1/2 [7] | binding mode by NMR chemical shift changes [8] | rate constant k of ligand-induced quenching reaction ([7]; TTR and ligand 1 μM each) | burst phase amplitude ([7]; millisecond time scale, fluorescence quenching) | bioavailability for an oral drug [9] | half-life in vivo [9]
O=C(O)CCc1cc(Cl)c(OCC[C@@H](O)[C@H](O)CCOc2c(Cl)cc(-c3nc4ccc(C(=O)O)cc4o3)cc2Cl)c(Cl)c1 [Compound B16, 2-[4-[(3R,4R)-6-[4-(2-carboxyethyl)-2,6-dichloro-phenoxy]-3,4-dihydroxy-hexoxy]-3,5-dichloro-phenyl]-1,3-benzoxazole-6-carboxylic acid] | – | 0.09 µM | – | 14.1 µM | 4.42 (1.45) % | 4.76 (3.13) % | 1.415 s | – | – | – | – | –
CCc1oc(-c2cc(Cl)c(OCC[C@@H](O)[C@H](O)CCOc3c(Cl)cc(CCC(=O)O)cc3Cl)c(Cl)c2)nc1C(=O)O [Compound B23, 2-[4-[(3R,4R)-6-[4-(2-carboxyethyl)-2,6-dichloro-phenoxy]-3,4-dihydroxy-hexoxy]-3,5-dichloro-phenyl]-5-ethyl-oxazole-4-carboxylic acid] | 5.11 h | 0.11 µM | 2.58 µg/mL | 9.8 µM | 4.41 (1.99) % | 12.6 (4.42) % | 1.216 s | occupancy of both binding sites | – | – | – | –
O=C(O)c1ccccc1Nc1cc(Cl)c(OCCCCCCCOc2c(Cl)cc(Nc3ccccc3C(=O)O)cc2Cl)c(Cl)c1 [mds84, reference compound] | – | – | – | – | – | – | – | – | 0.202 s⁻¹ | 8% | very poor | short
